From US11324219B2, “Amide compound or salt thereof, agricultural and horticultural microbicide comprising the compound and the salt, and method for using the agricultural and horticultural microbicide” (Nihon Nohyaku Co., Ltd., priority 2018, dated 2022)

CCS(=O)(=O)c1cc(C(F)(F)F)ccc1C(=O)Nc1oc(C(F)(F)F)cc1Br [Compound 1-23, N-[3-bromo-5-(trifluoromethyl)furan-2-yl]-2-(ethylsulfonyl)-4-(trifluoromethyl)benzamide]
melting point: 160 to 162 °C
